Results from patent US7514446B2, “Pyrimidine compounds” (SmithKline Beecham Corporation, priority 2003, dated 2009).
pIC50: −log10 of the molar value. Where a name gives a salt, the structure may show the parent alone.

What was measured:
[1] = test system: PC3 prostate tumor cell line; test: Methylene Blue Growth Inhibition Assay, PC3; format: cell-based; settings: Homo sapiens, PC-3, 72 h; PC3 cells, 3 days; read-out: MeB Cell Line IC50
Experimental: (§1) II. Methylene Blue Growth Inhibition Assay
(§2) Normal Human foreskin fibroblasts (HFF) and human colon (HCT116, RKO), lung (H460), prostate (PC3), and breast tumor (MCF7) cell lines were cultured in high glucose DMEM (Life Technologies) containing 10% fetal bovine serum (FBS) at 37° C. in a humidified 10% CO2, 90% air incubator. Cells were harvested using trypsin/EDTA, counted using a haemocytometer, and plated in 100 μl of the appropriate media, at the following densities, in a 96-well tissue culture plate (Falcon 3075): HFF 5,000 cells/well, HCT116 3,000 cells/well, RKO 2,500 cells/well, H460 2,000 cells/well, PC3 8,000 cells/well, MCF7 4,000 cells/well. The next day, compounds were diluted in DMEM containing 100 μg/ml gentamicin, at twice the final required concentration, from 10 mM stock solutions in DMSO. 100 μl/well of these dilutions were added to the 100 μl of media currently on the cell plates. Medium containing 0.6% DMSO was added to control wells. Compounds diluted in DMEM were added to all cell lines. The final concentration of DMSO in all wells was 0.3%. Cells were incubated at 37° C., 10% CO2 for 3 days. Medium was removed by aspiration. Cell biomass was estimated by staining cells with 90 μl per well methylene blue (Sigma M9140, 0.5% In 50:50 ethanol:water), and incubation at room temperature for at least 30 minutes. Stain was removed, and the plates rinsed under a gentle stream of water, and air-dried. To release stain from the cells 100 μl of solubilization solution was added (1% N-lauroyl sarcosine, Sodium salt, Sigma L5125, in PBS), and plates were shaken gently for about 30 minutes. Optical density at 620 nm was measured on a microplate reader. Percent inhibition of cell growth was calculated relative to vehicle treated control wells. Concentration of compound that inhibits 50% of cell growth (IC50) was interpolated using nonlinear regression (Levenberg-Marquardt) and the equation, y=Vmax*(1−(x/(K+x)))+Y2, where “K” was equal to the IC50. In Table 1, +=10->30 uM; ++=1-10 uM: +++=<1 uM.

[2] = test system: MCF7 breast tumor cell line; test: Methylene Blue Growth Inhibition Assay, MCF7; format: cell-based; settings: Homo sapiens, 72 h; MCF7 cells, 3 days; read-out: MeB Cell Line IC50
Experimental: as §1, §2

[3] = test system: RKO colon tumor cell line; test: Methylene Blue Growth Inhibition Assay, RKO; format: cell-based; settings: Homo sapiens, 72 h; RKO cells, 3 days; read-out: MeB Cell Line IC50
Experimental: as §1, §2

[4] = test system: HCT116 colon tumor cell line; test: Methylene Blue Growth Inhibition Assay, HCT116; format: cell-based; settings: Homo sapiens, HCT-116, 72 h; HCT116 cells, 3 days; read-out: MeB Cell Line IC50
Experimental: as §1, §2

PLK1 kinase domain = biological target: T1, PLK1 kinase domain (Homo sapiens, UniProt P53350); test: Assay for inhibition of PLK1 (SPA, 33P-ATP, His-tagged PLK kinase domain); format: biochemical; settings: 2 μM ATP, read-out: Ave pIC50 PLK Enzyme Inhibition (converted)
T1 construct: made in house; host or cells: baculovirus-infected T. ni insect cells
Experimental: I. Assay for Inhibition of PLK1
A. Preparation of 6× N-terminal His-tagged PLK Kinase Domain
6× N-terminal His-tagged PLK kinase domain (amino acids 21-346 preceded by […]) was prepared from baculovirus infected T. ni cells under polyhedrin promoter control. All procedures were performed at 4° C. Cells were lysed in 25 mM HEPES, 200 mM NaCl, 25 mM imidazole; pH 8.0. The homogenate was centrifuged at 14K rpm in a SLA-1500 rotor for 40 min and the supernatant filtered through a 1.2 micron filter. The supernatant was loaded onto a Nickel chelating Sepharose (Amersham Pharmacia) column and washed with 25 mM HEPES, 500 mM NaCl, 25 mM imidazole; pH 8.0. The column was then washed with a 16.6% B step where buffer B is 25 mM HEPES, 500 mM NaCl, 300 mM imidazole; pH 8.0. Protein was eluted using a 10-column volume linear gradient from 16.6% B to 100% B. Fractions containing PLK were determined by SDS-PAGE. PLK was concentrated using a 10 kDa molecular weight cutoff membrane and then loaded onto a Superdex 75 gel filtration (Amersham Pharmacia) column equilibrated in 25 mM HEPES, 1 mM DTT, 500 mM NaCl; pH 8.0. Fractions containing PLK were determined by SDS-PAGE. PLK was pooled, aliquoted and stored at −80° C. Samples were quality controlled using mass spectrometry.
B. Enzyme Activity+/−Inhibitors was Determined as Follows:
Compounds were added to the plate (1 μl in 100% DMSO). DMSO (2% final) and EDTA (55.5 mM final) were used as controls. Reaction Mix A is prepared as follows at 4° C.:
Reaction Mix A (substrate Mix): • 25 mM HEPES, pH 7.2 • 15 mM MgCl2 • 2 μM ATP • 0.1 μCi/well ^33P-γ ATP (10 Ci/mMol) • 2 μM substrate peptide (Biotin-Ahx-[…]) Reaction Mix B is prepared as follows at 4° C.:
Reaction Mix B (Enzyme Mix) • 25 mM HEPES, pH 7.2 • 15 mM MgCl2 • 0.15 mg/ml BSA • 2 mM DTT • 2-10 nM PLK1 kinase domain
Reaction Mix A (20 μl) is added per well. Reaction Mix B (20 μl) is added per well. Incubate 1.5 hrs. at RT. The enzymatic reaction is stopped with 175 μl of SPA/EDTA bead mix (29 mM EDTA, 2.5 mg/ml Streptavidin-coated SPA in Standard Dulbecco's PBS (without Mg^2+ and Ca^2+), 60 μM ATP). Plates are sealed spun (after a 1 hr incubation at RT) at 1,000×g for 7 min or settled overnight, then plates counted in Packard TopCount for 30 seconds/well.

[5] = test system: H460 lung tumor cell line; test: Methylene Blue Growth Inhibition Assay, H460; format: cell-based; settings: Homo sapiens, NCI-H460, 72 h; H460 cells, 3 days; read-out: MeB Cell Line IC50
Experimental: as §1, §2

[6] = test system: Normal Human foreskin fibroblasts (HFF); test: Methylene Blue Growth Inhibition Assay, HFF; format: cell-based; settings: 72 h, HFF cells, 3 days, read-out: MeB Cell Line IC50
Experimental: as §1, §2

T1 sequence (P53350 21-346): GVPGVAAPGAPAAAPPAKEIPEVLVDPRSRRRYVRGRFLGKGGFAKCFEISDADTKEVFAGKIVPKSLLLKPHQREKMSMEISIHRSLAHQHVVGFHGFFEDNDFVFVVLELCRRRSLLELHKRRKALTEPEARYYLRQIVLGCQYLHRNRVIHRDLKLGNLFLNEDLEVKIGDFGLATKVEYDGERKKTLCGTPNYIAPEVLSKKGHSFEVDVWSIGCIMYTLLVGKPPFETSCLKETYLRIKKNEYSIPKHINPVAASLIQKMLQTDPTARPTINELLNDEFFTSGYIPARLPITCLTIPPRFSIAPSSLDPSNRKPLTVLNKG

Row | pIC50 [1] | pIC50 [2] | pIC50 [3] | pIC50 [4] | IC50 (PLK1 kinase domain) [µM] | pIC50 [5] | SMILES | pIC50 [6]
1 | 5.00 to 6.00 | 5.00 to 6.00 | 5.00 to 6.00 | 5.00 to 6.00 | < 0.1 | 5.00 to 6.00 | COc1cc(Nc2ncc(C#N)c(Nc3ccccc3C(=O)c3ccc(C)cc3)n2)cc(OC)c1OC [Example 39, 4-{[2-(4-Methylbenzoyl)phenyl]amino}-2-[(3,4,5-trimethoxyphenyl)amino]pyrimidine-5-carbonitrile] | < 5.00
2 | < 5.00 | 5.00 to 6.00 | 5.00 to 6.00 | < 5.00 | < 0.1 | 5.00 to 6.00 | COc1cc(Nc2ncc([N+](=O)[O-])c(Nc3cccc4c3OCCO4)n2)cc(OC)c1OC [Example 19, N^4-(2,3-dihydro-1,4-benzodioxin-5-yl)-5-nitro-N^2-(3,4,5-trimethoxyphenyl)pyrimidine-2,4-diamine hydrochloride] | < 5.00
3 | 5.00 to 6.00 | 5.00 to 6.00 | 5.00 to 6.00 | 5.00 to 6.00 | < 0.1 | 5.00 to 6.00 | COc1cc(Nc2ncc([N+](=O)[O-])c(Nc3cccc4c3C(=O)CCC4)n2)cc(OC)c1OC [Example 9, 8-({5-nitro-2-[(3,4,5-trimethoxyphenyl)amino]pyrimidin-4-yl}amino)-3,4-dihydronaphthalen-1(2H)-one hydrochloride] | < 5.00
4 | < 5.00 | 5.00 to 6.00 | 5.00 to 6.00 | 5.00 to 6.00 | < 0.1 | 5.00 to 6.00 | COc1cc(Nc2ncc([N+](=O)[O-])c(Nc3ccc(Cl)cc3C(=O)c3ccccc3F)n2)cc(OC)c1OC [Example 36, [5-Chloro-2-({5-nitro-2-[(3,4,5-trimethoxyphenyl)amino]pyrimidin-4-yl}amino)phenyl](2-fluorophenyl)methanone hydrochloride] | < 5.00
5 | 5.00 to 6.00 | 5.00 to 6.00 | 5.00 to 6.00 | 5.00 to 6.00 | < 0.1 | 5.00 to 6.00 | CC(=O)Nc1ccc(Nc2ncc([N+](=O)[O-])c(Nc3ccccc3C(=O)c3ccccc3)n2)cc1 [Example 7, N-[4-({4-[(2-benzoylphenyl)amino]-5-nitropyrimidin-2-yl}amino)phenyl]acetamide hydrochloride] | < 5.00
6 | < 5.00 | < 5.00 | < 5.00 | < 5.00 | < 0.1 | < 5.00 | COc1cc(Nc2ncc([N+](=O)[O-])c(Nc3ccc(O)cc3C(=O)O)n2)cc(OC)c1OC [Example 22, 5-Hydroxy-2-({5-nitro-2-[(3,4,5-trimethoxyphenyl)amino]pyrimidin-4-yl}amino)benzoic acid hydrochloride] | < 5.00
7 | 5.00 to 6.00 | 5.00 to 6.00 | 5.00 to 6.00 | 5.00 to 6.00 | < 0.1 | 5.00 to 6.00 | COc1cc(Nc2ncc([N+](=O)[O-])c(Nc3ccccc3C(=O)NC(C)(C)C)n2)cc(OC)c1OC [Example 5, N-(tert-butyl)-2-({5-nitro-2-[(3,4,5-trimethoxyphenyl)amino]pyrimidin-4-yl}amino)benzamide hydrochloride] | 5.00 to 6.00
8 | < 5.00 | 5.00 to 6.00 | 5.00 to 6.00 | 5.00 to 6.00 | < 0.1 | 5.00 to 6.00 | COc1cc(Nc2ncc([N+](=O)[O-])c(Nc3ccccc3C(=O)NC3CCCCC3)n2)cc(OC)c1OC [Example 34, N-Cyclohexyl-2-({5-nitro-2-[(3,4,5-trimethoxyphenyl)amino]pyrimidin-4-yl}amino)benzamide hydrochloride] | 5.00 to 6.00
